The supplement of paper PMC10307832

Legend:
Assay in all cases: relative viability (nuclei count vs DMSO), 5 days (fraction); higher = more cells survive
COR-L23 = system: COR-L23
Procedure, shortened: (§1)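 Five library-drug doses in √10 steps were combined with a fixed anchor-drug dose, or a single drug was given alone, by pin tool to lung cancer cell lines in 1536-well plates the day after seeding. Nuclei were stained and counted after 5 days. Relative viability is the nuclei count in treated wells over that in vehicle wells, taken as the median of duplicate plates.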

NCI-H2023 = system: NCI-H2023
Procedure, shortened: as §1

BEN = system: BEN
Procedure, shortened: as §1

NCI-H1975 = system: NCI-H1975
Procedure, shortened: as §1

NCI-H1734 = system: NCI-H1734
Procedure, shortened: as §1

NCI-H460 = system: NCI-H460
Procedure, shortened: as §1

NCI-H1437 = system: NCI-H1437
Procedure, shortened: as §1

NCI-H1563 = system: NCI-H1563
Procedure, shortened: as §1

CAL-12T = system: CAL-12T
Procedure, shortened: as §1

NCI-H1355 = system: NCI-H1355
Procedure, shortened: as §1

NCI-H838 = system: NCI-H838
Procedure, shortened: as §1

SK-LU-1 = system: SK-LU-1
Procedure, shortened: as §1

LOU-NH91 = system: LOU-NH91
Procedure, shortened: as §1

NCI-H1793 = system: NCI-H1793
Procedure, shortened: as §1

NCI-H2085 = system: NCI-H2085
Procedure, shortened: as §1

NCI-H358 = system: NCI-H358
Procedure, shortened: as §1

NCI-H441 = system: NCI-H441
Procedure, shortened: as §1

NCI-H1651 = system: NCI-H1651
Procedure, shortened: as §1

HCC-366 = system: HCC-366
Procedure, shortened: as §1

LU99A = system: LU99A
Procedure, shortened: as §1

## Cc1sc2c(c1C)C(c1ccc(Cl)cc1)=N[C@@H](CC(=O)OC(C)(C)C)c1nnc(C)n1-2 [JQ1] + Cc1nc(NC(=O)N2CCC[C@H]2C(N)=O)sc1-c1ccnc(C(C)(C)C(F)(F)F)c1 [Alpelisib] (partner 2 µM)
COR-L23; first compound 0.04 µM
  relative viability: 0.814
COR-L23; first compound 0.1265 µM
  relative viability: 0.708
COR-L23; first compound 0.4 µM
  relative viability: 0.754
COR-L23; first compound 1.265 µM
  relative viability: 0.36
COR-L23; first compound 4 µM
  relative viability: 0.21
NCI-H2023; first compound 0.04 µM
  relative viability: 0.544
NCI-H2023; first compound 0.1265 µM
  relative viability: 0.651
NCI-H2023; first compound 0.4 µM
  relative viability: 0.531
NCI-H2023; first compound 1.265 µM
  relative viability: 0.213
NCI-H2023; first compound 4 µM
  relative viability: 0.217
BEN; first compound 0.04 µM
  relative viability: 0.953
BEN; first compound 0.1265 µM
  relative viability: 0.918
BEN; first compound 0.4 µM
  relative viability: 0.594
BEN; first compound 1.265 µM
  relative viability: 0.332
BEN; first compound 4 µM
  relative viability: 0.273
NCI-H1975; first compound 0.04 µM
  relative viability: 0.662
NCI-H1975; first compound 0.1265 µM
  relative viability: 0.424
NCI-H1975; first compound 0.4 µM
  relative viability: 0.578
NCI-H1975; first compound 1.265 µM
  relative viability: 0.348
NCI-H1975; first compound 4 µM
  relative viability: 0.335
NCI-H1734; first compound 0.04 µM
  relative viability: 0.709
NCI-H1734; first compound 0.1265 µM
  relative viability: 0.645
NCI-H1734; first compound 0.4 µM
  relative viability: 0.637
NCI-H1734; first compound 1.265 µM
  relative viability: 0.544
NCI-H1734; first compound 4 µM
  relative viability: 0.421
NCI-H460; first compound 0.04 µM
  relative viability: 0.47
NCI-H460; first compound 0.1265 µM
  relative viability: 0.344
NCI-H460; first compound 0.4 µM
  relative viability: 0.257
NCI-H460; first compound 1.265 µM
  relative viability: 0.0483
NCI-H460; first compound 4 µM
  relative viability: 0.0414
NCI-H1437; first compound 0.04 µM
  relative viability: 0.871
NCI-H1437; first compound 0.1265 µM
  relative viability: 0.803
NCI-H1437; first compound 0.4 µM
  relative viability: 0.515
NCI-H1437; first compound 1.265 µM
  relative viability: 0.284
NCI-H1437; first compound 4 µM
  relative viability: 0.216
NCI-H1563; first compound 0.04 µM
  relative viability: 0.846
NCI-H1563; first compound 0.1265 µM
  relative viability: 0.854
NCI-H1563; first compound 0.4 µM
  relative viability: 0.932
NCI-H1563; first compound 1.265 µM
  relative viability: 0.573
NCI-H1563; first compound 4 µM
  relative viability: 0.613
CAL-12T; first compound 0.04 µM
  relative viability: 1.08
CAL-12T; first compound 0.1265 µM
  relative viability: 1.42
CAL-12T; first compound 0.4 µM
  relative viability: 0.919
CAL-12T; first compound 1.265 µM
  relative viability: 0.325
CAL-12T; first compound 4 µM
  relative viability: 0.328
NCI-H1355; first compound 0.04 µM
  relative viability: 0.856
NCI-H1355; first compound 0.1265 µM
  relative viability: 0.84
NCI-H1355; first compound 0.4 µM
  relative viability: 0.71
NCI-H1355; first compound 1.265 µM
  relative viability: 0.508
NCI-H1355; first compound 4 µM
  relative viability: 0.438
NCI-H838; first compound 0.04 µM
  relative viability: 1.03
NCI-H838; first compound 0.1265 µM
  relative viability: 0.698
NCI-H838; first compound 0.4 µM
  relative viability: 0.882
NCI-H838; first compound 1.265 µM
  relative viability: 0.291
NCI-H838; first compound 4 µM
  relative viability: 0.263
SK-LU-1; first compound 0.04 µM
  relative viability: 1.11
SK-LU-1; first compound 0.1265 µM
  relative viability: 0.586
SK-LU-1; first compound 0.4 µM
  relative viability: 0.287
SK-LU-1; first compound 1.265 µM
  relative viability: 0.167
SK-LU-1; first compound 4 µM
  relative viability: 0.158
LOU-NH91; first compound 0.04 µM
  relative viability: 0.683
LOU-NH91; first compound 0.1265 µM
  relative viability: 0.664
LOU-NH91; first compound 0.4 µM
  relative viability: 0.458
LOU-NH91; first compound 1.265 µM
  relative viability: 0.491
LOU-NH91; first compound 4 µM
  relative viability: 0.473
NCI-H1793; first compound 0.04 µM
  relative viability: 0.653
NCI-H1793; first compound 0.1265 µM
  relative viability: 0.781
NCI-H1793; first compound 0.4 µM
  relative viability: 0.558
NCI-H1793; first compound 1.265 µM
  relative viability: 0.633
NCI-H1793; first compound 4 µM
  relative viability: 0.696
NCI-H2085; first compound 0.04 µM
  relative viability: 0.975
NCI-H2085; first compound 0.1265 µM
  relative viability: 0.844
NCI-H2085; first compound 0.4 µM
  relative viability: 0.824
NCI-H2085; first compound 1.265 µM
  relative viability: 0.595
NCI-H2085; first compound 4 µM
  relative viability: 0.549
NCI-H358; first compound 0.04 µM
  relative viability: 0.761
NCI-H358; first compound 0.1265 µM
  relative viability: 1.05
NCI-H358; first compound 0.4 µM
  relative viability: 0.93
NCI-H358; first compound 1.265 µM
  relative viability: 0.515
NCI-H358; first compound 4 µM
  relative viability: 0.527
NCI-H441; first compound 0.04 µM
  relative viability: 0.772
NCI-H441; first compound 0.1265 µM
  relative viability: 0.958
NCI-H441; first compound 0.4 µM
  relative viability: 0.692
NCI-H441; first compound 1.265 µM
  relative viability: 0.294
NCI-H441; first compound 4 µM
  relative viability: 0.444
NCI-H1651; first compound 0.04 µM
  relative viability: 0.882
NCI-H1651; first compound 0.1265 µM
  relative viability: 0.886
NCI-H1651; first compound 0.4 µM
  relative viability: 0.589
NCI-H1651; first compound 1.265 µM
  relative viability: 0.462
NCI-H1651; first compound 4 µM
  relative viability: 0.411
HCC-366; first compound 0.04 µM
  relative viability: 0.405
HCC-366; first compound 0.4 µM
  relative viability: 0.404
HCC-366; first compound 1.265 µM
  relative viability: 0.233
HCC-366; first compound 4 µM
  relative viability: 0.215
LU99A; first compound 0.04 µM
  relative viability: 0.537
LU99A; first compound 0.1265 µM
  relative viability: 0.544
LU99A; first compound 0.4 µM
  relative viability: 0.424
LU99A; first compound 1.265 µM
  relative viability: 0.307
LU99A; first compound 4 µM
  relative viability: 0.235
